Counter-ions that a name gives are not always drawn.
Assays:
L6-myotubes [1] = experiment: Measurement of intracellular cAMP levels (alpha screen cAMP kit) in differentiated cells, compared to isoproterenol; type: cell-based; conditions: 0.25 h, compound at 10 μM vs isoproterenol at 10 μM, 15 min stimulation, read-out: Biological example 2: intracellular cAMP level activity compared to that of isoproterenol
Experimental: (§1) L6-myoblasts were grown in Dulbecco's Modified Eagle's Medium (DMEM) containing 1 g/L glucose supplemented with 10% fetal bovine serum, 2 mM L-Glutamine, 50 U/mL penicillin, […] streptomycin and 10 mM HEPES. Cells were plated at 1×10^5 cells per mL in 24-well plates. After reaching 90% confluence the cells were grown in medium containing 2% FBS for 7 days where upon cells differentiated into myotubes.
Differentiated cells were serum-starved overnight and stimulated with an agonist, final concentration 1×10^−5 M, for 15 min in stimulation buffer (HBSS supplemented with 1% BSA, 5 mM HEPES and 1 mM IBMX, pH 7.4). The medium was aspirated and 100 μL of 95% EtOH was added to each well of the 24-well plate and cells were kept at −20° C. overnight. The EtOH was allowed to evaporate and 500 μL of lysis buffer (1% BSA, 5 mM HEPES and 0.3% Tween-20, pH 7.4) was added to each well. The plate was kept at −80° C. for 30 min and then at −20° C. until the day of detection when the samples were thawed. Intracellular cAMP levels were detected using an alpha screen cAMP kit (6760635D from Perkin Elmer). The activity for each compound is compared to that of isoproterenol.

L6-myotubes [2] = experiment: Glucose uptake (3H-2-deoxyglucose) in differentiated L6-myotubes, compared to isoproterenol; type: cell-based; conditions: compound at 10 μM vs isoproterenol at 10 μM, read-out: Biological example 1: glucose uptake activity compared to that of isoproterenol
Experimental: as §1
Differentiated L6-myotubes were serum-starved overnight in medium containing 0.5% fatty-acid free BSA and stimulated with an agonist, with a final concentration of 1×10^−5 M. After 1 h 40 min the cells were washed with warm glucose free medium or PBS twice and another portion of agonist was added to the glucose free medium. After 20 min the cells were exposed to 50 nM ^3H-2-deoxyglucose for another 10 min before washed in ice cold glucose free medium or PBS three times and lysed in 400 μL/well 0.2 M NaOH for 1 h at 60° C. The cell lysate was mixed with 4 mL scintillation buffer (Emulsifier Safe, Perkin Elmer) and the radioactivity was detected in a p-counter (Tri-Carb 4810TR, Perkin Elmer). The activity for each compound is compared to that of isoproterenol.

Molecule CC(=O)N1CCC(CC(C)(C)NC[C@H](O)c2cccc(F)c2)CC1 [Example 30, (R)-1-(4-(2-((2-(3-Fluorophenyl)-2-hydroxyethyl)amino)-2-methyl-propyl)piperidin-1-yl)ethan-1-one hydrochloride] has an Emax at 10 µM (L6-myotubes [1]) of under 25% and an Emax at 10 µM (L6-myotubes [2]) of over 75%.

Work on CC(C)(CC1CCN(S(C)(=O)=O)CC1)NC[C@H](O)c1cncc(F)c1 [Example 35, (R)-1-(5-Fluoropyridin-3-yl)-2-((2-methyl-1-(1-(methylsulfonyl)-piperidin-4-yl)propan-2-yl)amino)ethan-1-ol dihydrochloride] yielded an Emax at 10 µM (L6-myotubes [1]) of under 25% and an Emax at 10 µM (L6-myotubes [2]) of 50 to 75%.

In the case of CC(C)(C[C@@H]1CCCN(C(=O)C(C)(C)C)C1)NC[C@H](O)c1cccc(F)c1 [Example 5, 1-((S)-3-(2-(((R)-2-(3-Fluorophenyl)-2-hydroxyethyl)amino)-2-methylpropyl)piperidin-1-yl)-2,2-dimethylpropan-1-one], the Emax at 10 µM (L6-myotubes [1]) is reported as under 25% and the Emax at 10 µM (L6-myotubes [2]) is reported as 50 to 75%.

Molecule CC(C)(C[C@H]1CCCN(C(=O)OC(C)(C)C)C1)NC[C@H](O)c1cccc(F)c1 [Example 39, tert-Butyl (R)-3-(2-(((R)-2-(3-fluorophenyl)-2-hydroxyethyl)amino)-2-methylpropyl)piperidine-1-carboxylate] has an Emax at 10 µM (L6-myotubes [1]) of 25 to 50% and an Emax at 10 µM (L6-myotubes [2]) of 50 to 75%.

In the case of CC(C)(C[C@H]1CCNC1=O)NC[C@H](O)c1cccc(F)c1 [Example 73, (R)-3-(2-(((R)-2-(3-Fluorophenyl)-2-hydroxyethyl)amino)-2-methyl-propyl)pyrrolidin-2-one hydrochloride], the Emax at 10 µM (L6-myotubes [1]) is reported as under 25% and the Emax at 10 µM (L6-myotubes [2]) is reported as over 75%.

In the case of CC(C)(C[C@@H]1CCNC1)NC[C@H](O)c1cncc(F)c1 [Example 69, (R)-1-(5-Fluoropyridin-3-yl)-2-((2-methyl-1-((S)-pyrrolidin-3-yl)-propan-2-yl)amino)ethan-1-ol], the Emax at 10 µM (L6-myotubes [1]) is reported as under 25% and the Emax at 10 µM (L6-myotubes [2]) is reported as over 75%.

CC(C)(CC1CCNCC1)NC[C@H](O)c1cncc(F)c1 [Example 46, (R)-1-(5-Fluoropyridin-3-yl)-2-((2-methyl-1-(piperidin-4-yl)propan-2-yl)amino)ethan-1-ol] showed an Emax at 10 µM (L6-myotubes [1]) of under 25% and an Emax at 10 µM (L6-myotubes [2]) of 50 to 75%.

Work on CNC(=O)N1CCC[C@@H](CC(C)(C)NC[C@H](O)c2cccc(F)c2)C1 [Example 9, (S)-3-(2-(((R)-2-(3-Fluorophenyl)-2-hydroxyethyl)amino)-2-methyl-propyl)-N-methylpiperidine-1-carboxamide hydrochloride] yielded an Emax at 10 µM (L6-myotubes [1]) of 25 to 50% and an Emax at 10 µM (L6-myotubes [2]) of over 75%.

With CC(C)(C[C@H]1CCN(S(C)(=O)=O)C1)NC[C@H](O)c1cccc(F)c1 [Example 59, (R)-1-(3-Fluorophenyl)-2-((2-methyl-1-((R)-1-(methylsulfonyl)-pyrrolidin-3-yl)propan-2-yl)amino)ethan-1-ol] the Emax at 10 µM (L6-myotubes [1]) was under 25% and the Emax at 10 µM (L6-myotubes [2]) was over 75%.

In the case of CC(C)(C[C@H]1CCCOC1)NC[C@H](O)c1cccc(F)c1 [Example 83, (R)-1-(3-Fluorophenyl)-2-((2-methyl-1-((R)-tetrahydro-2H-pyran-3-yl)propan-2-yl)amino)ethan-1-ol], the Emax at 10 µM (L6-myotubes [1]) is reported as under 25% and the Emax at 10 µM (L6-myotubes [2]) is reported as over 75%.

CC(C)(C[C@H]1CCN(C(=O)OC(C)(C)C)C1)NC[C@H](O)c1cccc(F)c1 [Example 56, tert-Butyl (R)-3-(2-(((R)-2-(3-fluorophenyl)-2-hydroxyethyl)amino)-2-methylpropyl)pyrrolidine-1-carboxylate] gave an Emax at 10 µM (L6-myotubes [1]) of under 25% and an Emax at 10 µM (L6-myotubes [2]) of 50 to 75%.

CC(C)(C[C@@H]1CCCN(S(C)(=O)=O)C1)NC[C@H](O)c1cncc(F)c1 [Example 14, (R)-1-(5-Fluoropyridin-3-yl)-2-((2-methyl-1-((S)-1-(methylsulfonyl)-piperidin-3-yl)propan-2-yl)amino)ethan-1-ol hydrochloride] was tested, and the Emax at 10 µM (L6-myotubes [1]) was under 25% and the Emax at 10 µM (L6-myotubes [2]) was 50 to 75%.

Molecule CN(C)C(=O)N1CCC(CC(C)(C)NC[C@H](O)c2cccc(F)c2)CC1 [Example 44, (R)-4-(2-((2-(3-Fluorophenyl)-2-hydroxyethyl)amino)-2-methyl-propyl)-N,N-dimethylpiperidine-1-carboxamide hydrochloride] has an Emax at 10 µM (L6-myotubes [1]) of 50 to 75% and an Emax at 10 µM (L6-myotubes [2]) of over 75%.

In the case of CC(C)(C[C@H]1CNC(=O)C1)NC[C@H](O)c1cncc(F)c1 [Example 78, (R)-4-(2-(((R)-2-(5-Fluoropyridin-3-yl)-2-hydroxyethyl)amino)-2-methylpropyl)pyrrolidin-2-one dihydrochloride], the Emax at 10 µM (L6-myotubes [1]) is reported as under 25% and the Emax at 10 µM (L6-myotubes [2]) is reported as over 75%.

Molecule CC(C)(CC1CCNCC1)NC[C@H](O)c1cccc(F)c1 [Example 29, (R)-1-(3-Fluorophenyl)-2-((2-methyl-1-(piperidin-4-yl)propan-2-yl)-amino)ethan-1-ol] has an Emax at 10 µM (L6-myotubes [1]) of under 25% and an Emax at 10 µM (L6-myotubes [2]) of over 75%.

In the case of CC(C)(C[C@H]1CNC(=O)C1)NC[C@H](O)c1cccc(F)c1 [Example 76, (R)-4-(2-(((R)-2-(3-Fluorophenyl)-2-hydroxyethyl)amino)-2-methyl-propyl)pyrrolidin-2-one hydrochloride], the Emax at 10 µM (L6-myotubes [1]) is reported as under 25% and the Emax at 10 µM (L6-myotubes [2]) is reported as over 75%.

In the case of CC(=O)N1CCC[C@@H](CC(C)(C)NC[C@H](O)c2cccc(C(F)(F)F)n2)C1 [Example 22, 1-((S)-3-(2-(((S)-2-Hydroxy-2-(6-(trifluoromethyl)pyridin-2-yl)ethyl)-amino)-2-methylpropyl)piperidin-1-yl)ethan-1-one dihydrochloride], the Emax at 10 µM (L6-myotubes [1]) is reported as under 25% and the Emax at 10 µM (L6-myotubes [2]) is reported as over 75%.

Work on CC(C)(C[C@H]1CCCN(S(C)(=O)=O)C1)NC[C@H](O)c1cccc(F)c1 [Example 25, (R)-1-(3-Fluorophenyl)-2-((2-methyl-1-((R)-1-(methylsulfonyl)-piperidin-3-yl)propan-2-yl)amino)ethan-1-ol hydrochloride] yielded an Emax at 10 µM (L6-myotubes [1]) of under 25% and an Emax at 10 µM (L6-myotubes [2]) of 25 to 50%.

CC(=O)N1CCC[C@@H](CC(C)(C)NC[C@H](O)c2cncc(F)c2)C1 [Example 13, 1-((S)-3-(2-(((R)-2-(5-Fluoropyridin-3-yl)-2-hydroxyethyl)amino)-2-methylpropyl)piperidin-1-yl)ethan-1-one dihydrochloride] gave an Emax at 10 µM (L6-myotubes [1]) of under 25% and an Emax at 10 µM (L6-myotubes [2]) of over 75%.

CC(=O)N1CCC[C@@H](CC(C)(C)NC[C@H](O)c2cccc(F)c2)C1 [Example 3, 1-((S)-3-(2-(((R)-2-(3-Fluorophenyl)-2-hydroxyethyl)amino)-2-methylpropyl)piperidin-1-yl)ethan-1-one hydrochloride] showed an Emax at 10 µM (L6-myotubes [1]) of 50 to 75% and an Emax at 10 µM (L6-myotubes [2]) of over 75%.

CC(=O)N1CCN(CC(C)(C)NC[C@H](O)c2cccc(F)c2)CC1 [Example 86, (R)-1-(4-(2-((2-(3-Fluorophenyl)-2-hydroxyethyl)amino)-2-methyl-propyl)piperazin-1-yl)ethan-1-one dihydrochloride] was tested, and the Emax at 10 µM (L6-myotubes [1]) was under 25% and the Emax at 10 µM (L6-myotubes [2]) was over 75%.

Work on COC(=O)N1CCC[C@@H](CC(C)(C)NC[C@H](O)c2cccc(F)c2)C1 [Example 7, Methyl (S)-3-(2-(((R)-2-(3-fluorophenyl)-2-hydroxyethyl)amino)-2-methylpropyl)piperidine-1-carboxylate] yielded an Emax at 10 µM (L6-myotubes [1]) of 50 to 75% and an Emax at 10 µM (L6-myotubes [2]) of over 75%.

Molecule CC(C)(C[C@@H]1CCCNC1)NC[C@H](O)c1cncc(F)c1 [Example 12, (R)-1-(5-Fluoropyridin-3-yl)-2-((2-methyl-1-((S)-piperidin-3-yl)-propan-2-yl)amino)ethan-1-ol] has an Emax at 10 µM (L6-myotubes [1]) of under 25% and an Emax at 10 µM (L6-myotubes [2]) of over 75%.

CC(C)(C[C@H]1CCCN(C(=O)OC(C)(C)C)C1)NC[C@H](O)c1cncc(F)c1 [Example 40, tert-Butyl (R)-3-(2-(((R)-2-(5-fluoropyridin-3-yl)-2-hydroxyethyl)-amino)-2-methylpropyl)piperidine-1-carboxylate] was tested, and the Emax at 10 µM (L6-myotubes [1]) was under 25% and the Emax at 10 µM (L6-myotubes [2]) was over 75%.

Molecule CC(C)(CC1CCN(C(=O)C(C)(C)C)CC1)NC[C@H](O)c1cccc(F)c1 [Example 41, (R)-1-(4-(2-((2-(3-Fluorophenyl)-2-hydroxyethyl)amino)-2-methyl-propyl)piperidin-1-yl)-2,2-dimethylpropan-1-one] has an Emax at 10 µM (L6-myotubes [1]) of under 25% and an Emax at 10 µM (L6-myotubes [2]) of 25 to 50%.

Work on CC(C)(C[C@H]1CCCCO1)NC[C@H](O)c1cccc(F)c1 [Example 81, (R)-1-(3-Fluorophenyl)-2-((2-methyl-1-((R)-tetrahydro-2H-pyran-2-yl)propan-2-yl)amino)ethan-1-ol] yielded an Emax at 10 µM (L6-myotubes [1]) of 25 to 50% and an Emax at 10 µM (L6-myotubes [2]) of over 75%.

With CC(C)(C[C@H]1CCCN(S(C)(=O)=O)C1)NC[C@H](O)c1cncc(F)c1 [Example 27, (R)-1-(5-Fluoropyridin-3-yl)-2-((2-methyl-1-((R)-1-(methylsulfonyl)-piperidin-3-yl)propan-2-yl)amino)ethan-1-ol dihydrochloride] the Emax at 10 µM (L6-myotubes [1]) was under 25% and the Emax at 10 µM (L6-myotubes [2]) was 50 to 75%.

Source: patent publication US20260242335A1, “HETEROCYCLOALKYL BETA-HYDROXY ALKYL AMINES FOR USE IN THE TREATMENT OF HYPERGLYCAEMIA AND DISORDERS CHARACTERISED BY HYPERGLYCAEMIA” (ATROGI AB, priority 2023, published 2026)
